Assay results published in patent US20260258033A1, “2,7-Naphthyridine Compounds as MASTL Inhibitors” (Pfizer Inc., priority 2022, published 2026).

Legend:
[1] = tested on: breast cancer cells; details: in breast cancer cells; Kang et al., Pharmaceuticals 2021; read-out: cellular IC50; cited from earlier work
[2] = molecular target: T1, Full-length human recombinant N-term FLAG-tagged MASTL protein (Homo sapiens, UniProt Q96GX5); experiment: MASTL enzyme kinase assay (CHEF PhosphoSens); details: MASTL Ki (nM), 3 nM MASTL, 1 mM ATP, room temperature; geometric mean of at least 3 independent determinations (* denotes n = 2)
T1 sequence (Q96GX5 1-879): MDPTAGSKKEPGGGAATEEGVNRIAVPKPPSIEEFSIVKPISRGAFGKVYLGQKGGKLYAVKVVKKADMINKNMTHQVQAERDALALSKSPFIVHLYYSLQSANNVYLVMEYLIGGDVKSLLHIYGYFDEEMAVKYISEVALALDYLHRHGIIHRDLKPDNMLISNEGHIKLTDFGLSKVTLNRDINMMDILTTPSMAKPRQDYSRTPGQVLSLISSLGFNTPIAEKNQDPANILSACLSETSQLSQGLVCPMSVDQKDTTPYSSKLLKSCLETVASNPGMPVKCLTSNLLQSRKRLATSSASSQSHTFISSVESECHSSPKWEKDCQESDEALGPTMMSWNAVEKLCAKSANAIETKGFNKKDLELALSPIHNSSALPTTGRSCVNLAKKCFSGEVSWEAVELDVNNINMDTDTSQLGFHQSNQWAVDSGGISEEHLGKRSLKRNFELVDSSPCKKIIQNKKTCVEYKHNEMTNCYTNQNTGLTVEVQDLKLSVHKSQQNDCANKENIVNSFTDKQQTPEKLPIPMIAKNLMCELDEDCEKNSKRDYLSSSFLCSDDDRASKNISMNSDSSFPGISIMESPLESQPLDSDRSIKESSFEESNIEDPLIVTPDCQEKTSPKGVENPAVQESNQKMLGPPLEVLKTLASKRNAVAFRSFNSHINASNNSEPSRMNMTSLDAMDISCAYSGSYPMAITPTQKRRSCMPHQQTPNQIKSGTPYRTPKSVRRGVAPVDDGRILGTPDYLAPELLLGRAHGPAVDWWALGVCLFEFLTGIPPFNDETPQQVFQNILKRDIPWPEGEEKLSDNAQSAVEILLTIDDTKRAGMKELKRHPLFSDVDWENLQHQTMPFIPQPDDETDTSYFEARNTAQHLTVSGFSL
Source text: MASTL enzyme kinase assay was used to measure the inhibition constant (Ki) of Examples of the present invention.
Full-length human recombinant N-term FLAG-tagged MASTL protein (construct LJIC-3077G2), activated by CDK1, was produced at Pfizer Inc by expression in baculovirus-infected insect cells. All reagents were purchased from Sigma-Aldrich, Inc (St. Louis, MO), unless specified otherwise. Tween™ 20 detergent (10% Solution) was purchased from EMD Millipore Corp (Billerica, MA). The CHEF phosphoacceptor peptide substrate (AQT0693) was purchased from AssayQuant technologies, Inc (Marlboro, MA). […] The reactions contained 1 mM ATP and were initiated by the addition of enzyme. Initial reaction velocities were determined by following the fluorescence (λex=360 nm, λem=485 nm) of appropriate CHEF peptide substrate for 120 minutes in an end-point mode in a SpectraMax Paradigm Microplate Reader (Molecular Devices, LLC. San Jose, California). The extents of reactions were estimated to be <20%.

Structure (SMILES) | Ki [2] [nM] | IC50 [1] [nM]
N#CCc1ccc(Nc2nc(Nc3cc(C4CC4)[nH]n3)c3ccccc3n2)cc1 [MKI-2, 2-(4-((4-((5-cyclopropyl-1H-pyrazol-3-yl)amino)quinazolin-2-yl)amino)phenyl)acetonitrile] |  | 143
Cn1nncc1-c1cc2cc(Nc3cc(C(C)(N)CC(F)(F)F)ccn3)ncc2c(N)n1 (single isomer, unassigned) [Example 26, N^6-(4-(2-amino-4,4,4-trifluorobutan-2-yl)pyridin-2-yl)-3-(1-methyl-1H-1,2,3-triazol-5-yl)-2,7-naphthyridine-1,6-diamine] | 0.075 | 
Cn1nncc1-c1cc2cc(Nc3cc(C(N)CC(F)(F)F)ccn3)ncc2c(N)n1 (single isomer, unassigned) [Example 18, N^6-(4-(1-amino-3,3,3-trifluoropropyl)pyridin-2-yl)-3-(1-methyl-1H-1,2,3-triazol-5-yl)-2,7-naphthyridine-1,6-diamine] | 0.088 | 

Now from value to compound, other results behind:

Ki [2] [nM] | Structure (SMILES) | IC50 [1] [nM]
0.059 | CCn1nncc1-c1cc2cc(Nc3cc(C(C)(C)NC)ccn3)ncc2c(N)n1 [Example 37, 3-(1-ethyl-1H-1,2,3-triazol-5-yl)-N^6-(4-(2-(methylamino)propan-2-yl)pyridin-2-yl)-2,7-naphthyridine-1,6-diamine] | 
0.23 | CNC(c1ccnc(Nc2cc3cc(-c4cnnn4C)nc(N)c3cn2)c1)C(C)(C)C (single isomer, unassigned) [Example 34, N^6-(4-(2,2-dimethyl-1-(methylamino)propyl)pyridin-2-yl)-3-(1-methyl-1H-1,2,3-triazol-5-yl)-2,7-naphthyridine-1,6-diamine] | 
